Results as given in paper PMC4938538, “Inhibition of Pig Phosphoenolpyruvate Carboxykinase Isoenzymes by 3-Mercaptopicolinic Acid and Novel Inhibitors” (PLoS ONE, 2016).
Residue numbers refer to the chain shown, from its start. “And” between values parts separate entries of the source, which are not always exact repeats. Equal entries are not always repeated. “Also recorded” adds a separate entry of the source. Where two headings read alike, the source gives them in different places.

Tests used:
[1] = molecular target: T1, PEPCK-C 139Leu (Sus scrofa, UniProt A0A4X1UM84, M139L); test: 3-MP inhibition kinetics (double reciprocal, secondary and Dixon plots); assay type: biochemical, pig
T1 construct: made in house; host or cells: Escherichia coli BL21 (DE3)
T1 sequence (A0A4X1UM84 1-622 M139L): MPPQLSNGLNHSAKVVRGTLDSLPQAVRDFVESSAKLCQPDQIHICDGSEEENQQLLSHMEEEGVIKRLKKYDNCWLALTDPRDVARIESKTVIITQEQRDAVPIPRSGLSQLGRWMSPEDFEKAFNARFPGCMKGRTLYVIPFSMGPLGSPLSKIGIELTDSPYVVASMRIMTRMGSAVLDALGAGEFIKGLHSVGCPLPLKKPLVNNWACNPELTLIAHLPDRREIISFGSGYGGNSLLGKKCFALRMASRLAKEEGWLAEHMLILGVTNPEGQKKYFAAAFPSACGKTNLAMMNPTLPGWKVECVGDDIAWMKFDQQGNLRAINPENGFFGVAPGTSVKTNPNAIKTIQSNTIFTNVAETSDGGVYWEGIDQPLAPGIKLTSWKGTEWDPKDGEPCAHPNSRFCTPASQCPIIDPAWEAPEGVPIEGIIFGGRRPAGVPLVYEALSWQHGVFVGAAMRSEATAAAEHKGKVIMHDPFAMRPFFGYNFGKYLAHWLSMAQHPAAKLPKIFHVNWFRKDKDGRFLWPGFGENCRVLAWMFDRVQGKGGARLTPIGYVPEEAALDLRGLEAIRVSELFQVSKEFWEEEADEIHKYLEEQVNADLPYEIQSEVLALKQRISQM
Method: (§1) PEPCK-C activity was measured in an UNICAM 500 spectrometer (UNICAM Analytical Systems, UK) with coupled spectrophotometric assays using pyruvate kinase and lactate dehydrogenase as auxiliary enzymes in PEP synthesis reaction and malate dehydrogenase in the reverse reaction.
(§2) 3-MP inhibitions assays in OAA synthesis direction were carried out as described before with the exception of the variable substrate (50–600 μM for PEP and 10–100 μM for GDP) and 3-MP concentration (10–100 μM). Assays in the direction of PEP synthesis were performed in 1 mL of a 100 mM HEPES buffer pH 7.4, containing 10 mM DTT, 0.2 mM MnCl2, 2 mM MgCl2, 1 mM GTP or 400 μM OAA, 1 mM ADP, 0.2 mM NADH, PEPCK-C and 5 units of each pyruvate kinase and lactate dehydrogenase. Reactions were initiated by addition of OAA. Variable substrates were 5–50 μM OAA or 25–500 μM GTP and 3-MP concentrations were between 10–400 μM. Rates were calculated by measuring the decreasing slope at 340 nm of absorbance after subtracting the rate of spontaneous NADH oxidation in the case of OAA synthesis or the rate of the blank which contained all the components of the mix but PEPCK-C in the case of PEP synthesis.
(§3) 3-MP inhibition assays were fitted in double reciprocal plots. To describe the mixed non-competitive inhibition, the double reciprocal equation can be written as: 1/v = Km/Vmax (1+[I]/Ki) 1/[S]+1/Vmax (1+[I]/αKi) (2)
(§4) Ki and αKi are the dissociation constants of the enzyme-inhibitor complex and the enzyme-inhibitor-substrate complex, respectively.
(§5) The equation for the Dixon plot is: 1/v = Km/Vmax[S]+1/Vmax+Km/Vmax[S]Ki (5)

[2] = molecular target: T2, PEPCK-C 139Met (Sus scrofa, UniProt A0A4X1UM84); test: as above; assay type: biochemical, pig; design: made in house; host or cells: Escherichia coli BL21 (DE3)
T2 sequence (A0A4X1UM84 1-622): T1 sequence (A0A4X1UM84 1-622 M139L) with L139M
Method: as §1, §2, §3, §4, §5

[3] = molecular target: T1, PEPCK-C 139Leu; test: Compound 1 and 2 inhibition assays in PEP synthesis direction (Vmax and Km); assay type: biochemical, pig; settings: for Vmax (GTP) in presence of inhibitor / Vmax (OAA) in presence of inhibitor: 50 μM inhibitor; for Vmax (OAA) in presence of inhibitor: OAA variable substrate
Method: as §1, §2
Compound 1 and 2 inhibitions assays were performed in PEP synthesis direction as described in 3-MP inhibition assays. Variable substrates were 10–100 μM OAA or 25–500 μM GTP, inhibitors concentrations were around IC50 value (100 μM compound 1 or 50 μM compound 2) and 20 units of each pyruvate kinase and lactate dehydrogenase were also added.
Data from compound 1 and 2 inhibition assays were represented in double reciprocal plots to calculate Vmax and Km values using GraphPad Prism 3.03 software.

[4] = tested on: pyruvate kinase and lactate dehydrogenase; test: Inhibition of auxiliary enzymes; assay type: biochemical; settings: 25–200 μM compound; data not shown
Source text: Reactions were initiated by addition of 0.5 units of each pyruvate kinase and lactate dehydrogenase.

O=C(O)c1ncccc1S [3-MP, 3-mercaptopicolinic acid]
Pattern of inhibition (GDP) ([1]; 139Leu, GDP as variable substrate): uncompetitive inhibitor
Pattern of inhibition (GTP) ([1]; 139Leu, GTP as variable substrate): uncompetitive inhibitor
Pattern of inhibition (OAA) ([1]; 139Leu, OAA as variable substrate): mixed non-competitive inhibitor; also recorded: Mixed NC
αKi (OAA) ([1]; 139Leu, OAA as variable substrate, PEP synthesis direction): 21 ± 13 ns μM
Ki ([1]; 139Leu, OAA as variable substrate, PEP synthesis direction, read-out: Ki (OAA)): 29 ± 1 µM
Pattern of inhibition (PEP) ([1]; 139Leu, PEP as variable substrate): mixed non-competitive inhibitor; also recorded: Mixed NC
αKi (PEP) ([1]; 139Leu, PEP as variable substrate, OAA synthesis direction): 31 ± 5 μM and 31 ± 5 ns μM
Ki ([1]; 139Leu, PEP as variable substrate, OAA synthesis direction, read-out: Ki (PEP)): 19 ± 4 µM
Ki ([1]; 139Leu, with respect to GDP, Dixon plot, substrates saturating, read-out: Ki (GDP)): 45 ± 0.8 µM
Ki ([1]; 139Leu, with respect to GTP, Dixon plot, substrates saturating, read-out: Ki (GTP)): 873 ± 144 µM
Ki for 139Leu larger than for 139Met (OAA binding) ([1]; OAA as variable substrate): 50%
Pattern of inhibition (GDP) ([2]; 139Met, GDP as variable substrate): uncompetitive inhibitor
Pattern of inhibition (GTP) ([2]; 139Met, GTP as variable substrate): uncompetitive inhibitor
Pattern of inhibition (OAA) ([2]; 139Met, OAA as variable substrate): mixed non-competitive inhibitor; also recorded: Mixed NC
αKi (OAA) ([2]; 139Met, OAA as variable substrate, PEP synthesis direction): 49 ± 18 µM
Ki ([2]; 139Met, OAA as variable substrate, PEP synthesis direction, read-out: Ki (OAA)): 18 ± 4 µM
Pattern of inhibition (PEP) ([2]; 139Met, PEP as variable substrate): mixed non-competitive inhibitor; also recorded: Mixed NC
αKi (PEP) ([2]; 139Met, PEP as variable substrate, OAA synthesis direction): 20 ± 4 µM
Ki ([2]; 139Met, PEP as variable substrate, OAA synthesis direction, read-out: Ki (PEP)): 16 ± 2 µM
Ki ([2]; 139Met, with respect to GDP, Dixon plot, substrates saturating, read-out: Ki (GDP)): 45 ± 3 µM
Ki ([2]; 139Met, with respect to GTP, Dixon plot, substrates saturating, read-out: Ki (GTP)): 273 ± 68 µM
Ki fold lower for 139Met than 139Leu (GTP) ([2]; GTP as variable substrate): 3 fold
Ki fold lower for 139Met than 139Leu (OAA) ([2]; OAA as variable substrate): 1.6 fold

CC(=NNC(=S)NC1CCCCC1)c1sc(-c2cccs2)nc1C [compound 1, N1-cyclohexyl-2-{1-[4-methyl-2-(2-thienyl)-1,3-thiazol-5-yl]ethylidene}hydrazine-1-carbothiamide]
Vmax (GTP) in presence of inhibitor ([3]; GTP variable substrate): 7.2 μmol min^-1 mg^-1 and 7.2 ± 0.4 ns μmol min^-1 mg^-1
Vmax (OAA) in presence of inhibitor [3]: 9.4 μmol min^-1 mg^-1 and 9.4 ± 1.3 ns μmol min^-1 mg^-1
Inhibition of / interaction with auxiliary enzymes [4]: slight inhibition

Cn1nc(-c2ccc(C=NNC(=O)c3ccc(Cl)cc3Cl)s2)cc1C(F)(F)F [compound 2, N'1-({5-[1-methyl-5-(trifluoromethyl)-1H-pyrazol-3-yl]-2-thienyl}methylidene)-2,4-dichlorobenzene-1-carbohydrazide]
Reduction of Km value for GTP in presence of the inhibitor ([3]; GTP variable substrate): about 30%
Vmax (GTP) in presence of inhibitor ([3]; GTP variable substrate): 6.1 ± 1.0 ns μmol min^-1 mg^-1
Vmax (OAA) in presence of inhibitor [3]: 12.7 µmol/min/mg and 12.7 ± 1.1 µmol/min/mg
Inhibition of / interaction with auxiliary enzymes [4]: slight interaction
